Results from PubChem BioAssay (NCI).
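Grown in 96-well plates, cells were treated for 48 hours with each compound at five concentrations. Insufficient inhibition: endpoint recorded as highest concentration tested. The concentration for 50% growth inhibition is given as GI50. TGI is the concentration that stops growth completely.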

Experiments:
Assay in all cases: inhibition of tumour cell growth, NCI panel, 48 h
RPMI-8226 leukemia = system: RPMI-8226 leukemia
A549 NSCLC = system: A549 NSCLC
MDA-MB-435 = system: MDA-MB-435
HCT-116 colon = system: HCT-116 colon
HOP-62 NSCLC = system: HOP-62 NSCLC
SF-268 CNS = system: SF-268 CNS
SN12C renal = system: SN12C renal
NCI/ADR-RES ovarian = system: NCI/ADR-RES ovarian
MCF7 breast = system: MCF7 breast
IGROV1 ovarian = system: IGROV1 ovarian
BT-549 breast = system: BT-549 breast
NCI-H23 lung = system: NCI-H23 lung
U251 CNS = system: U251 CNS
A498 renal = system: A498 renal
M14 melanoma = system: M14 melanoma
T-47D breast = system: T-47D breast
HS 578T breast = system: HS 578T breast
SK-MEL-2 melanoma = system: SK-MEL-2 melanoma
TK-10 renal = system: TK-10 renal
COLO 205 colon = system: COLO 205 colon
SNB-75 CNS = system: SNB-75 CNS
MALME-3M melanoma = system: MALME-3M melanoma
UO-31 renal = system: UO-31 renal
HOP-92 NSCLC = system: HOP-92 NSCLC
SK-OV-3 ovarian = system: SK-OV-3 ovarian
CCRF-CEM leukemia = system: CCRF-CEM leukemia
NCI-H226 lung = system: NCI-H226 lung
SW-620 colon = system: SW-620 colon
CAKI-1 renal = system: CAKI-1 renal
MOLT-4 leukemia = system: MOLT-4 leukemia
HCT-15 colon = system: HCT-15 colon
RXF 393 renal = system: RXF 393 renal
K-562 leukemia = system: K-562 leukemia
OVCAR-3 ovarian = system: OVCAR-3 ovarian
SK-MEL-28 melanoma = system: SK-MEL-28 melanoma
NCI-H522 lung = system: NCI-H522 lung
OVCAR-5 ovarian = system: OVCAR-5 ovarian
HCC-2998 colon = system: HCC-2998 colon
SNB-19 CNS = system: SNB-19 CNS
SK-MEL-5 melanoma = system: SK-MEL-5 melanoma
LOX IMVI melanoma = system: LOX IMVI melanoma
NCI-H460 lung = system: NCI-H460 lung
SR leukemia = system: SR leukemia
MDA-MB-231 breast = system: MDA-MB-231 breast
DU-145 prostate = system: DU-145 prostate
OVCAR-4 ovarian = system: OVCAR-4 ovarian
UACC-62 melanoma = system: UACC-62 melanoma
SF-539 CNS = system: SF-539 CNS
KM12 colon = system: KM12 colon
PC-3 prostate = system: PC-3 prostate
ACHN renal = system: ACHN renal
OVCAR-8 ovarian = system: OVCAR-8 ovarian
HL-60(TB) leukemia = system: HL-60(TB) leukemia
SF-295 CNS = system: SF-295 CNS
UACC-257 melanoma = system: UACC-257 melanoma
HT29 colon = system: HT29 colon
786-0 renal = system: 786-0 renal

COc1ccc(Nc2nc(NCCNc3ccnc4cc(Cl)ccc34)nc(N3CCOCC3)n2)cc1
GI50 (RPMI-8226 leukemia): 2.75 µM
TGI (RPMI-8226 leukemia): 13.1 µM
GI50 (A549 NSCLC): 4.87 µM
TGI (A549 NSCLC): 20.3 µM
GI50 (MDA-MB-435): 1.82 µM
TGI (MDA-MB-435): 3.49 µM
GI50 (HCT-116 colon): 3.01 µM
TGI (HCT-116 colon): 14.8 µM
GI50 (HOP-62 NSCLC): 8.09 µM
TGI (HOP-62 NSCLC): 21.6 µM
GI50 (SF-268 CNS): 5.02 µM
TGI (SF-268 CNS): 19.5 µM
GI50 (SN12C renal): 8.73 µM
TGI (SN12C renal): 23.4 µM
GI50 (NCI/ADR-RES ovarian): 6.38 µM
TGI (NCI/ADR-RES ovarian): 24.9 µM
GI50 (MCF7 breast): 2.86 µM
TGI (MCF7 breast): 12.8 µM
GI50 (IGROV1 ovarian): 8.43 µM
TGI (IGROV1 ovarian): 23.4 µM
GI50 (BT-549 breast): 9.92 µM
TGI (BT-549 breast): 22.1 µM
GI50 (NCI-H23 lung): 13.7 µM
TGI (NCI-H23 lung): 29.7 µM
GI50 (U251 CNS): 3.1 µM
TGI (U251 CNS): 15.4 µM
GI50 (A498 renal): 0.272 µM
TGI (A498 renal): 2.19 µM
GI50 (M14 melanoma): 1.86 µM
TGI (M14 melanoma): 3.47 µM
GI50 (T-47D breast): 11.6 µM
TGI (T-47D breast): 28 µM
GI50 (HS 578T breast): 3.91 µM
TGI (HS 578T breast): 24.1 µM
GI50 (SK-MEL-2 melanoma): 2.19 µM
TGI (SK-MEL-2 melanoma): 4.28 µM
GI50 (TK-10 renal): 7.64 µM
TGI (TK-10 renal): 20.6 µM
GI50 (COLO 205 colon): 1.53 µM
TGI (COLO 205 colon): 3.33 µM
GI50 (SNB-75 CNS): 2.09 µM
TGI (SNB-75 CNS): 8.73 µM
GI50 (MALME-3M melanoma): 1.94 µM
TGI (MALME-3M melanoma): 3.47 µM
GI50 (UO-31 renal): 1.33 µM
TGI (UO-31 renal): 14.2 µM
GI50 (HOP-92 NSCLC): 1.16 µM
TGI (HOP-92 NSCLC): 13 µM
GI50 (SK-OV-3 ovarian): 11.7 µM
TGI (SK-OV-3 ovarian): 24.6 µM
GI50 (CCRF-CEM leukemia): 2.95 µM
TGI (CCRF-CEM leukemia): 15.4 µM
GI50 (NCI-H226 lung): 3.89 µM
TGI (NCI-H226 lung): 18.3 µM
GI50 (SW-620 colon): 3.47 µM
TGI (SW-620 colon): 13.4 µM
GI50 (CAKI-1 renal): 4.17 µM
TGI (CAKI-1 renal): 17.5 µM
GI50 (MOLT-4 leukemia): 2.01 µM
TGI (MOLT-4 leukemia): 11.2 µM
GI50 (HCT-15 colon): 2.63 µM
TGI (HCT-15 colon): 10.9 µM
GI50 (RXF 393 renal): 1.89 µM
TGI (RXF 393 renal): 8.92 µM
GI50 (K-562 leukemia): 2.09 µM
TGI (K-562 leukemia): 7.82 µM
GI50 (OVCAR-3 ovarian): 11.5 µM
TGI (OVCAR-3 ovarian): 24.3 µM
GI50 (SK-MEL-28 melanoma): 1.81 µM
TGI (SK-MEL-28 melanoma): 3.28 µM
GI50 (NCI-H522 lung): 3.85 µM
TGI (NCI-H522 lung): 11.5 µM
GI50 (OVCAR-5 ovarian): 15.7 µM
TGI (OVCAR-5 ovarian): 31.4 µM
GI50 (HCC-2998 colon): 2.08 µM
TGI (HCC-2998 colon): 3.88 µM
GI50 (SNB-19 CNS): 10.6 µM
TGI (SNB-19 CNS): 23.6 µM
GI50 (SK-MEL-5 melanoma): 1.59 µM
TGI (SK-MEL-5 melanoma): 3.04 µM
GI50 (LOX IMVI melanoma): 3.01 µM
TGI (LOX IMVI melanoma): 10.6 µM
GI50 (NCI-H460 lung): 4.58 µM
TGI (NCI-H460 lung): 19.3 µM
GI50 (SR leukemia): 2.01 µM
TGI (SR leukemia): 7.36 µM
GI50 (MDA-MB-231 breast): 2.73 µM
TGI (MDA-MB-231 breast): 10.2 µM
GI50 (DU-145 prostate): 9.8 µM
TGI (DU-145 prostate): 21.9 µM
GI50 (OVCAR-4 ovarian): 9 µM
TGI (OVCAR-4 ovarian): 24.5 µM
GI50 (UACC-62 melanoma): 1.85 µM
TGI (UACC-62 melanoma): 3.59 µM
GI50 (SF-539 CNS): 2.18 µM
TGI (SF-539 CNS): 7.54 µM
GI50 (KM12 colon): 5.18 µM
TGI (KM12 colon): 18 µM
GI50 (PC-3 prostate): 3.94 µM
TGI (PC-3 prostate): 19.8 µM
GI50 (ACHN renal): 4.77 µM
TGI (ACHN renal): 18.1 µM
GI50 (OVCAR-8 ovarian): 6.46 µM
TGI (OVCAR-8 ovarian): 27.4 µM
GI50 (HL-60(TB) leukemia): 1.13 µM
TGI (HL-60(TB) leukemia): 12.7 µM
GI50 (SF-295 CNS): 2.05 µM
TGI (SF-295 CNS): 3.92 µM
GI50 (UACC-257 melanoma): 1.87 µM
TGI (UACC-257 melanoma): 3.61 µM
GI50 (HT29 colon): 1.07 µM
TGI (HT29 colon): 3.75 µM
GI50 (786-0 renal): 2.11 µM
TGI (786-0 renal): 12.3 µM
